6 compounds from patent US8153385B2, “Target protein and target gene in drug designing and screening method” (Reverse Proteomics Research Institute Co., Ltd., priority 2004, dated 2012) can be followed below.

The target of the experiment is T1, FLJ13397 clone-derived protein (CARP) (Homo sapiens, UniProt Q9H8M7).
T1 construct: A human full-length cDNA clone was expressed as a protein with an N-terminal His tag; His tag (pDEST17 Gateway vector) (N); made in house; host or cells: Escherichia coli BL21star(DE3)pLysS
T1 sequence (Q9H8M7 1-445): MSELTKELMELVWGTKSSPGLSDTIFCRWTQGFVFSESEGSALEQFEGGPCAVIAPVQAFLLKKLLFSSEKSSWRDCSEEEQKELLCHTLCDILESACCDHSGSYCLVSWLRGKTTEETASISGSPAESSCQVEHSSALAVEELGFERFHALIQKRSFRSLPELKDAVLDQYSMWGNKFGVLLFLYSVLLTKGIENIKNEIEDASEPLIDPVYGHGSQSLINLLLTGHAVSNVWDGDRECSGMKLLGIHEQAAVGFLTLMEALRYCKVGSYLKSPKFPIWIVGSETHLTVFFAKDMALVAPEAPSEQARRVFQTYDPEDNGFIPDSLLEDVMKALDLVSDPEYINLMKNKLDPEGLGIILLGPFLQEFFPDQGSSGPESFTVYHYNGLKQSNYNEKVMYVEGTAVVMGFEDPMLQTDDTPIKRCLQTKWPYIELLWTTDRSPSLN
As to the kind of experiment: SEC/MS (size exclusion chromatography / mass analysis) interaction analysis between FLJ13397 clone-derived protein and compounds. The class given is binding. How it is done:
BP-reaction was performed on human full-length cDNA clone and the cloning vector Gateway pDONR201 by the PCR cloning method using the Invitrogen Gateway system to yield an entry clone. LR-reaction was performed on this entry clone with the destination vector pDEST17 (Gateway System) and LR Clonase at 25° C. for 60 minutes to yield an expression plasmid. Escherichia coli competent cell BL21star(DE3)pLysS were transformed with this expression plasmid, a clone incorporating the expression vector was selected, and a frozen stock was prepared. The transformant was inoculated into LB medium and precultured, after which it was transferred into SB medium and cultured to induce the expression by IPTG, and the cells were stored frozen.
A human full-length cDNA clone was expressed as a protein with an N-terminal His tag. This clone was purified using BioRobot 8000 (Qiagen) or ACTA Crystal (Amersham). […] In the purification with ACTA Crystal, affinity purification using a HisTrap HP column was followed by gel filtration purification using the Gel Filtration Column HiLoad 16/60 or a 10/30 Superdex 75 prep grade column. The purified fraction was used for interaction analysis after being subjected to SDS-PAGE to verify the estimated molecular weight and purity.
To analyze the interactions between commonly used drugs and proteins expressed from human full-length cDNA clones while keeping both the proteins and the compounds in non-modified, non-immobilized state, size exclusion chromatography (SEC) and mass analysis were used in combination (FIGS. 1 and 2). The specific procedures are shown below.
The compound-protein mixture prepared in step 1 was subjected to chromatography using an SEC column, the compound and the protein were separated by SEC, and the bound compound or compound that interacted with the protein in the protein fraction was analyzed using a mass analyzer.
Protein concentrations were measured using BCA Protein Assay (PIERCE), in consideration of the purity calculated by SDS-PAGE.
Mass analysis was performed using LCQ DECA XP (Thermoelectron) or Q-TOFmicro (Micromass), equipped with an ESI probe. The LC pump used was Agilent 1100 (Yokogawa Analytical Systems), and the autosampler used was HTC-PAL (CTC Analytics) equipped with a cooling stacker.
In the SEC method using a 384-well spin column, Unifilter 100 (Whatman), packed with 10 μL (dry volume) of Bio-Gel P6 (BIO-RAD) and swollen with milliQ water, was used as the SEC column. […] The SEC spin column was mounted on an acetonitrile-aliquoted 384-well U-bottom plate and centrifuged; the SEC spin column filtrate, which is a protein fraction, was retrieved in 50% acetonitrile. The protein precipitate produced by the acetonitrile was removed via centrifugation and filtration for protein removal; the resulting filtrate was concentrated by centrifugation and re-dissolved in 10 μL of 50% methanol to obtain a mass analysis sample. The mobile phase supplied to the mass analyzer was 0.1% formic acid/50% methanol solution in the positive ion mode, and 0.1% ammonia/50% methanol solution in the negative ion mode; these mobile phases were used at a flow rate of 40 μL/min. 2-μL of mass analysis samples were injected using an autosampler at 2-Minute intervals; the mass spectral intensity of the compound was measured to obtain the spectral intensity of the pharmaceutical compound contained in the SEC spin column filtrate (protein fraction eluted from SEC).
On the technique in general: SEC sorts molecules by how far they enter the pores of the column.

Where [1] appears, read: compound 1 μM, protein 0 μM (protein-free reference).
Where [2] appears, read: compound 1 μM, protein 23.75 μM.
[3] abbreviates: compound 10 μM, protein 0 μM (protein-free reference).
Where [4] appears, read: compound 10 μM, protein 23.75 μM.
Where [5] appears, read: compound 10 μM, protein 47.5 μM.
The mark [6] stands for this setting: compound 100 μM, protein 0 μM (protein-free reference).
[7] abbreviates: compound 100 μM, protein 23.75 μM.
The mark [8] stands for this setting: compound 100 μM, protein 47.5 μM.
Setting [9] is: compound 250 μM, protein 0 μM (protein-free reference).
Setting [10] is: compound 250 μM, protein 23.75 μM.
[11] abbreviates: compound 250 μM, protein 47.5 μM.

For the compound `COc1ccc(CCN2CCC(Nc3nc4ccccc4n3Cc3ccc(F)cc3)CC2)cc1` [Astemizole], the “spectrum intensity of the extracted mass range (compound in SEC spin column filtrate)” value (“spectrum intensity” for short) runs as follows: under setting [1], 12239048; under setting [2], 16006165; (compound 1 μM, protein 47.5 μM) 18099237; under setting [3], 13557249; under setting [4], 118520633; under setting [5], 36678174. For the same compound, the “spectrum intensity” value is, setting by setting: under setting [6], 210085727; under setting [7], 1213216132; under setting [8], 2237504347; under setting [9], 710392964; under setting [10], 1027353172; under setting [11], 2019252410. In addition, the “interaction with the FLJ13397-expressed protein (judgement)” value (judged from increase of spectrum intensity with doses of compound and protein) was “concentration-dependent interaction”.
Take `c1ccc2[nH]cnc2c1` [Benzimidazole]: the “spectrum intensity” value under setting [1] is 2459590; the “spectrum intensity” value under setting [2] is 1627696; the “spectrum intensity” value (compound 1 μM, protein 47.5 μM) amounted to 1328076; the “spectrum intensity” value under setting [3] amounted to 2937731; the “spectrum intensity” value under setting [4] was found to be 1321952; the “spectrum intensity” value under setting [5] is given as 2620286. Also, the “spectrum intensity” value runs as follows: under setting [6], 3881633; under setting [7], 4636579; under setting [8], 4337586; under setting [9], 9545633; under setting [10], 10439034; under setting [11], 13446649.
As for `COC(=O)Nc1nc2ccccc2[nH]1` [Carbendazim], the “spectrum intensity” value by setting is: under setting [1], 20852664; under setting [2], 16443963; (compound 1 μM, protein 47.5 μM) 24660680; under setting [3], 22203544; under setting [4], 21673683; under setting [5], 32996198. The “spectrum intensity” value is, setting by setting: under setting [6], 20562919; under setting [7], 35342827; under setting [8], 65044479; under setting [9], 34177767; under setting [10], 129995989; under setting [11], 148437211.
With `Oc1ccc(CCN2CCC(Nc3nc4ccccc4n3Cc3ccc(F)cc3)CC2)cc1` [Desmethyl-astemizole], the “spectrum intensity” value by setting is: under setting [1], 12076364; under setting [2], 10091649; (compound 1 μM, protein 47.5 μM) 10876345; under setting [3], 6489161; under setting [4], 12628724; under setting [5], 26276867. The “spectrum intensity” value came to 85510154 under setting [6]; 141884756 under setting [7]; 225675004 under setting [8]; 135192715 under setting [9]; 339921213 under setting [10]; 728918987 under setting [11].
For `COC(=O)Nc1nc2ccc(S(=O)(=O)c3ccccc3)cc2[nH]1` [Fenbendazole Sulfone], the “spectrum intensity” value reads like this: under setting [1], 4524987; under setting [2], 2681468; (compound 1 μM, protein 47.5 μM) 2967134; under setting [3], 9471873; under setting [4], 13569838; under setting [5], 12568548. For the same compound, the “spectrum intensity” value under setting [6] amounted to 4055561; the “spectrum intensity” value under setting [7] is 63176239; the “spectrum intensity” value under setting [8] worked out at 88590858; the “spectrum intensity” value under setting [9] is 5180253; the “spectrum intensity” value under setting [10] worked out at 165761033; the “spectrum intensity” value under setting [11] is recorded as 286102392.
`OCCOCCN1CCN(C(c2ccccc2)c2ccc(Cl)cc2)CC1` (stereo not shown) [Hydroxyzine]: the “spectrum intensity” value reads like this: under setting [1], 112855827; under setting [2], 126033923; (compound 1 μM, protein 47.5 μM) 89527484; under setting [3], 134387910; under setting [4], 108540593; under setting [5], 115214088. The “spectrum intensity” value under setting [6] was determined as 300477422; the “spectrum intensity” value under setting [7] was determined as 567712336; the “spectrum intensity” value under setting [8] was found to be 554713461; the “spectrum intensity” value under setting [9] is 922692583; the “spectrum intensity” value under setting [10] is reported as 919366054; the “spectrum intensity” value under setting [11] is recorded as 1073610880.
